The values that follow come from patent US8030487B2, “2-amino—5-substituted pyrimidine inhibitors” (TargeGen, Inc., priority 2006, dated 2011).

One assay has as its target T1, human c-Src (Homo sapiens, UniProt P12931).
T1 construct: purchased Panvera/Invitrogen
The assay is described as follows: Src kinase inhibition (KinaseGlo residual ATP). It counts as biochemical. The settings on record: ATP 3 μM, 90 min room temperature. As to the method:
(§1) The ability of compounds of the present invention to inhibit the activity of various groups of kinases was tested. Kinases that were tested are described below. All kinase reactions were conducted in 96-well plates with a final reaction volume of 50 μl.
Recombinant human c-Src or Yes, or Fyn, or Lck (28 ng/well, Panvera/Invitrogen, Madison Wis.), ATP (3 μM), a tyrosine kinase substrate (PTK2, 250 μM, Promega Corp., Madison Wis.), and test agents (at concentrations ranging from about 1 nM/l to about 100 μM/l), in the presence of Src kinase reaction buffer (Upstate USA, Lake Placid N.Y.). After reacting for about 90 minutes at room temperature, residual ATP was determined using a luciferase-based assay (KinaseGlo, Promega Corp.) as a measure of kinase activity. Data from four wells were then averaged and used to determine IC50 values for the test compounds (Prism software package, GraphPad Software, San Diego Calif.).
(In general: In Kinase-Glo more light means more ATP remaining.)

The next assay has as its target T2, VEGFR2 (Homo sapiens, UniProt P35968).
T2 construct: purchased Cell Signaling/ProQinase
Briefly: VEGFR2 kinase inhibition (residual ATP luminescence). The settings on record: 1.5 uM ATP, 60 min 37° C. It counts as biochemical. As to the method: as §1
EGFR and VEGFR2 kinase assays were similarly performed. EGFR (76 ng/well, Panvera/Invitrogen) was combined with 12.5 mg/ml poly(glu4tyr) (Sigma) and 2.5 uM ATP. VEGFR2 (14.1 U/well, Cell Signaling/ProQinase) was used with 0.3 mg/ml poly(glu4tyr) and 1.5 uM ATP. Both were incubated for 60 minutes at 37° C., and the residual ATP was measured via luminescence, per the procedure described above.

SMILES strings stand for the structures.

T1 sequence (P12931 whole entry): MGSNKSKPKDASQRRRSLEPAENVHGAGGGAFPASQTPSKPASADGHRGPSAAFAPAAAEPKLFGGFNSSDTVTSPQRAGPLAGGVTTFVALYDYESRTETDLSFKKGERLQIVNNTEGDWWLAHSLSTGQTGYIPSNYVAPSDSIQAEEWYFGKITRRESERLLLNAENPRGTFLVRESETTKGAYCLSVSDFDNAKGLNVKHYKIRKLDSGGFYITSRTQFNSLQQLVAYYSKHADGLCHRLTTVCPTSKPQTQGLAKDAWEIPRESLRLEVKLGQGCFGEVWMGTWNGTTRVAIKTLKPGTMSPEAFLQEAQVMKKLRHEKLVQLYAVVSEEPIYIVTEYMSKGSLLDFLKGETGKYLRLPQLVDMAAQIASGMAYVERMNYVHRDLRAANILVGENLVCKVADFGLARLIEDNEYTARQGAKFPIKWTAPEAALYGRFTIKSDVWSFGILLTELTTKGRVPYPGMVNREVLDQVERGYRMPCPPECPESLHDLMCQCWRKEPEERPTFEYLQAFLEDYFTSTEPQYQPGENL
T2 sequence (P35968 20-1356, species assumed): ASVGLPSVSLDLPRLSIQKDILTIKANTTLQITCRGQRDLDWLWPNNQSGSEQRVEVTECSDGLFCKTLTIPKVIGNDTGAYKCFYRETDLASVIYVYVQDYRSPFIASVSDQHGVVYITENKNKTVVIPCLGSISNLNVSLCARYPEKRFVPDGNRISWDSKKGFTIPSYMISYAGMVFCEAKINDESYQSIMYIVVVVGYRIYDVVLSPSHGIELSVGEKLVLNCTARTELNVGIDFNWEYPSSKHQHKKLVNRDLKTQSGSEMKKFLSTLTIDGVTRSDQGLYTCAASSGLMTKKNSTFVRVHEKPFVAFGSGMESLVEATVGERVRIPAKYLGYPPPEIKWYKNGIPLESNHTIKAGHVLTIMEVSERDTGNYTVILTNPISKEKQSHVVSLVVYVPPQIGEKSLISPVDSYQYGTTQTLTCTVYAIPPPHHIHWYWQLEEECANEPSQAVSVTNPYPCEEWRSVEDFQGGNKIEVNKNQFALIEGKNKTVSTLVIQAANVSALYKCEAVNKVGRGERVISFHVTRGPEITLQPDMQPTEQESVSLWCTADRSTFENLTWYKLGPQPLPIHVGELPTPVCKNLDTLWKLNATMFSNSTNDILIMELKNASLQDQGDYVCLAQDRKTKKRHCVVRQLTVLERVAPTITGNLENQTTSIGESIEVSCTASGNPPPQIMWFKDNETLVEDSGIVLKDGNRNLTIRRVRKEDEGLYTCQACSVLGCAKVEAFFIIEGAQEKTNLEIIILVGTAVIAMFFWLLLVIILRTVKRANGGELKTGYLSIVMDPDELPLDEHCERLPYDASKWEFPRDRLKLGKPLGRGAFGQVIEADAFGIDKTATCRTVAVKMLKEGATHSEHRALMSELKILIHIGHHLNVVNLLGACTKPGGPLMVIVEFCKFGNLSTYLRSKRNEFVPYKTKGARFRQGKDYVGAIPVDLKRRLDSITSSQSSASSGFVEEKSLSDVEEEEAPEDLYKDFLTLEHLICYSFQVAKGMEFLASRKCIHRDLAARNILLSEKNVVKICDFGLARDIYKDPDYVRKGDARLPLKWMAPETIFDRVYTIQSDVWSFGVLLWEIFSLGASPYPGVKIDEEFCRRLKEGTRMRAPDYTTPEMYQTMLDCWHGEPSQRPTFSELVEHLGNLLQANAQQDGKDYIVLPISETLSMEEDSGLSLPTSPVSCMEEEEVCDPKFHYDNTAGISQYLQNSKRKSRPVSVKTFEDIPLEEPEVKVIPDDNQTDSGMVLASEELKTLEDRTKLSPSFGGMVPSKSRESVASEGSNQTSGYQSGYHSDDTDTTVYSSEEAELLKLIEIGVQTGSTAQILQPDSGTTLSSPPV

With `O=C(Nc1ccc(Cl)c(C(=O)Nc2cnc(Nc3ccccc3)nc2)c1)c1cccc(C(F)(F)F)c1` [drawing 181], the half-maximal inhibitory concentration (IC50) – broadly, the concentration needed to halve the response being measured – at human c-Src worked out at 4.5 nM; on VEGFR2, 9.6 nM. The corresponding values for `O=C(Nc1ccc(Cl)c(C(=O)Nc2cnc(Nc3ccc(C(=O)N4CCN(CCO)CC4)nc3)nc2)c1)c1cccc(C(F)(F)F)c1` are 1.9 nM and 3.1 nM. Regarding `Cc1ccc(NC(=O)c2cccc(C(F)(F)F)c2)cc1C(=O)Nc1cnc(Nc2ccc(C(=O)NCCN3CCCC3)nc2)nc1`, the results for the IC50 on human c-Src and against VEGFR2 were 4.1 nM and 21 nM, respectively. On to `CCOC(=O)c1cccc(Nc2ncc(NC(=O)c3cc(NC(=O)c4cccc(C(F)(F)F)c4)ccc3Cl)cn2)c1`, for which the IC50 against human c-Src turned out to be 13.4 nM.

As to `CN1CCN(C(=O)c2ccc(Nc3ncc(NC(=O)c4cc(NC(=O)c5cccnc5)ccc4Cl)cn3)cc2)CC1`, the IC50 on human c-Src worked out at 93.2 nM. `Cc1ccc(NC(=O)c2c(F)cc(F)cc2F)cc1C(=O)Nc1cnc(Nc2cccc(CCCN3CCCC3)c2)nc1` came in with an IC50 against human c-Src of 102 nM. Turning to `O=C(Nc1ccc(Cl)c(C(=O)Nc2cnc(Nc3ccc(S(=O)(=O)C4CCNCC4)cc3)nc2)c1)c1cccc(C(F)(F)F)c1` [drawing 169], the IC50 was 1.8 nM against human c-Src and 4.5 nM against VEGFR2. In the case of `Nc1ncc(NC(=O)c2cc(NC(=O)c3cccc(C(F)(F)F)c3)ccc2Cl)cn1`, the midpoint of inhibition against human c-Src, the IC50, lay at 72 nM. Take `O=C(Nc1ccc(Cl)c(C(=O)Nc2cnc(Nc3cccc(S(=O)(=O)NCCN4CCCC4)c3)nc2)c1)c1cccc(C(F)(F)F)c1`: the results for the 50% inhibitory concentration (IC50) against human c-Src and on VEGFR2 were 4 nM and 2.1 nM, respectively. As to `O=C(Nc1cccc(C(F)(F)F)c1)Nc1ccc(Cl)c(C(=O)Nc2cnc(Nc3ccc(OCCN4CCCC4)cc3)nc2)c1` [drawing 202], the IC50 was 2.2 nM on human c-Src and 7.1 nM at VEGFR2. `CN1CCN(C(=O)c2ccc(Nc3ncc(NC(=O)c4cc(NC(=O)c5cccc(C(F)(F)F)c5)ccc4Cl)cn3)cc2)CC1`: the half-inhibitory concentration (IC50) was found to be 1.7 nM on human c-Src and 2.3 nM against VEGFR2. For the molecule `O=C(Nc1ccc(Cl)c(C(=O)Nc2cnc(Nc3ccc(S(=O)(=O)C4CCNCC4)cc3)nc2)c1)c1cccs1`, half-maximal inhibition on human c-Src (IC50) required 38.2 nM. With `O=C(Nc1ccc(Cl)c(NC(=O)c2cnc(Nc3cccc(OCCN4CCCC4)c3)nc2)c1)c1cccc(C(F)(F)F)c1`, the half-inhibitory concentration (IC50) was determined as 67 nM at human c-Src and 149 nM against VEGFR2. Regarding `O=C(Nc1cnc(Nc2cccc(OCCN3CCCC3)c2)nc1)c1cc(Nc2ccccn2)ccc1Cl`, at human c-Src, half-maximal inhibition (IC50) was put at 169 nM.

For `O=C(Nc1ccc(Cl)c(C(=O)Nc2cnc(Nc3ccc(C(=O)NCCN4CCCC4)nc3)nc2)c1)c1cccc(C(F)(F)F)c1`, at human c-Src, the IC50 was 5 nM.

As to `O=C(Nc1cnc(Nc2cccc(OCCN3CCCC3)c2)nc1)c1cc(NC(=O)C(F)(F)F)ccc1Cl` [drawing 168], half-maximal inhibition on human c-Src (IC50) required 63.4 nM.

The molecule `Cc1ccc(S(N)(=O)=O)cc1Nc1cnc(Nc2ccc(S(=O)(=O)NCCN3CCCC3)cc2)nc1` gave an IC50 against human c-Src of approximately 10000 nM. For the molecule `O=C(Nc1ccc(Cl)c(C(=O)Nc2cnc(Nc3ccc(S(=O)(=O)C4CCNCC4)cc3)nc2)c1)c1cc(C(F)(F)F)ccc1F`, the half-maximal inhibitory concentration (IC50) on human c-Src was 4.2 nM; against VEGFR2, 22.3 nM. Turning to `O=C(Nc1ccc(Cl)c(NC(=O)c2cnc(Nc3ccc(OCCN4CCCC4)cc3)nc2)c1)c1cccc(C(F)(F)F)c1`, the 50% inhibitory concentration (IC50) was 50 nM against human c-Src and 43 nM on VEGFR2. On human c-Src, `O=C(Nc1ccc(Cl)c(C(=O)Nc2cnc(Nc3ccc(CCCN4CCCC4)cc3)nc2)c1)c1cccc(C(F)(F)F)c1` [drawing 180] gave an IC50 of 2.6 nM. On human c-Src, `N#Cc1ccc(C(=O)Nc2ccc(Cl)c(C(=O)Nc3cnc(Nc4ccc(S(=O)(=O)C5CCNCC5)cc4)nc3)c2)cc1` yielded an IC50 of 32 nM. In the case of `COc1ccc(C(=O)Nc2ccc(Cl)c(C(=O)Nc3cnc(Nc4ccc(S(=O)(=O)C5CCNCC5)cc4)nc3)c2)cc1`, the midpoint of inhibition on human c-Src, the IC50, lay at 17.5 nM.

Regarding `O=C(Nc1cnc(Nc2cccnc2)nc1)c1cc(Nc2ccc3ccccc3n2)ccc1Cl`, at human c-Src, half-maximal inhibition (IC50) was put at 454 nM. For the molecule `O=C(Nc1ccc(Cl)c(NC(=O)c2cnc(Nc3cccnc3)nc2)c1)c1cccc(C(F)(F)F)c1`, the figures for the IC50 against human c-Src and against VEGFR2 were 86 nM and 178 nM, respectively.

As to `O=C(Nc1ccc(C(=O)Nc2cnc(Nc3cccc(OCCN4CCCC4)c3)nc2)c(Cl)c1)c1cccc(C(F)(F)F)c1`, the midpoint of inhibition at human c-Src, the IC50, lay at 65.7 nM. At human c-Src, `O=C(Nc1cnc(Nc2ccc(CCCN3CCCC3)cc2)nc1)c1cc(Nc2ccc3ccccc3n2)ccc1Cl` registered an IC50 of 407 nM.

Regarding `Cc1ccc(NC(=O)c2cccc(C(F)(F)F)c2)cc1C(=O)Nc1cnc(Nc2ccc(S(=O)(=O)CCCN3CCCC3)cc2)nc1`, the half-maximal inhibitory concentration (IC50) against human c-Src was determined as 3.8 nM; against VEGFR2, 14.2 nM. The corresponding values for `O=C(Nc1cccc(C(F)(F)F)c1)Nc1ccc(Cl)c(C(=O)Nc2cnc(Nc3cccnc3)nc2)c1` are 14.2 nM and 20.1 nM. The corresponding values for `O=C(Nc1ccc(Cl)c(C(=O)Nc2cnc(Nc3ccc(OC(=O)c4ccccc4)cc3)nc2)c1)c1cccc(C(F)(F)F)c1` are 647 nM and 361 nM. Turning to `O=C(Nc1cnc(Nc2ccc(OCCN3CCCC3)cc2)nc1)c1cc(NC(=O)C2CCCCC2)ccc1Cl`, it took 19.4 nM to reach half-maximal inhibition at human c-Src (IC50). In the case of `Cc1ccc(NC(=O)Nc2cccc(C(F)(F)F)c2)cc1C(=O)Nc1cnc(Nc2cccc(OCCN3CCCC3)c2)nc1`, the IC50 against human c-Src is 1.8 nM; against VEGFR2 it was 73.1 nM. As for `Cc1ccc(NC(=O)c2cccc(C(F)(F)F)c2)cc1C(=O)Nc1cnc(Nc2ccc(C(=O)NCCN3CCCC3)cc2)nc1`, on human c-Src, half-maximal inhibition (IC50) was put at 1.7 nM. Still for that read-out and setting: in the case of `Cc1ccc(NC(=O)c2ccccc2)cc1C(=O)Nc1cnc(Nc2cccc(OCCN3CCCC3)c2)nc1` it was 16.6 nM. Molecule `Cc1cccc(NC(=O)c2cccc(C(=O)Nc3cnc(Nc4ccc(S(=O)(=O)CCCN5CCCC5)cc4)nc3)c2)c1` came in with an IC50 on VEGFR2 of 164 nM. Molecule `Cc1cccc(C(=O)Nc2ccc(Cl)c(C(=O)Nc3cnc(Nc4ccc(S(=O)(=O)CCCN5CCCC5)cc4)nc3)c2)c1` displayed an IC50 against human c-Src of 11.6 nM. In the case of `O=C(Nc1ccc(Cl)c(C(=O)Nc2cnc(Nc3ccc(S(=O)(=O)CCCN4CCCC4)cc3)nc2)c1)c1cccc(C(F)(F)F)c1` [drawing 161], inhibition against VEGFR2 was half-maximal at 2.9 nM (IC50). `Cc1ccc(NC(=O)C(C)(C)C)cc1C(=O)Nc1cnc(Nc2ccc(OCCN3CCCC3)cc2)nc1`: the IC50 at human c-Src was more than 10000 nM. Consider `O=C(Nc1ccc(Cl)c(C(=O)Nc2cnc(Nc3ccc(CCCN4CCCC4)cc3)nc2)c1)c1cccc(C(F)(F)F)c1` [drawing 172], for which the IC50 against human c-Src stood at 2.8 nM. Take `O=C(Nc1ccc(Cl)c(C(=O)Nc2cnc(NCCN3CCCC3)nc2)c1)c1cccc(C(F)(F)F)c1`: the half-maximal inhibitory concentration (IC50) against human c-Src was more than 10000 nM. `CC(=O)Nc1ccc(Cl)c(C(=O)Nc2cnc(Nc3ccc(S(=O)(=O)C4CCNCC4)cc3)nc2)c1` yielded a half-inhibitory concentration (IC50) at human c-Src of 2600 nM. In the case of `Cc1ccc(S(=O)(=O)NCc2ccccc2)cc1Nc1cnc(Nc2ccc(S(=O)(=O)NCCN3CCCC3)cc2)nc1`, the midpoint of inhibition on human c-Src, the IC50, lay at 1300 nM. The same measure, in the same setting: in the case of `O=C(Nc1cnc(Nc2ccc(S(=O)(=O)CCCN3CCCC3)cc2)nc1)c1cccc(NC(=O)c2cccc(C(F)(F)F)c2)c1` it was 67.4 nM; in that of `Cc1ccc(NC(=O)c2cccc(C(F)(F)F)c2)cc1Nc1cnc(Nc2cccc(CCCN3CCCC3)c2)nc1`, 755 nM. Consider `Cc1ccc(NC(=O)Cc2cccc(C(F)(F)F)c2)cc1C(=O)Nc1cnc(Nc2cccnc2)nc1`, for which the half-maximal inhibitory concentration (IC50) on human c-Src is 56.9 nM. On human c-Src, `Cc1ccc(NC(=O)C(F)(F)F)cc1C(=O)Nc1cnc(Nc2cccc(OCCN3CCCC3)c2)nc1` [drawing 173] showed a concentration for half-maximal inhibition (IC50) of 50.6 nM. Consider `Cc1cc(C(=O)Nc2ccc(Cl)c(C(=O)Nc3cnc(Nc4ccc(OCCN5CCCC5)cc4)nc3)c2)no1`, for which the concentration for half-maximal inhibition (IC50) against human c-Src worked out at 77.5 nM.
